# According to US20240158446A1, “CYCLIC COMPOUND HAVING SELECTIVE INHIBITORY ACTION ON KRAS OVER HRAS AND NRAS” (CHUGAI SEIYAKU KABUSHIKI KAISHA, priority 2021, published 2024):
# Experiments:
# [1] = molecular target: GDP-bound HRAS wild-type protein (Homo sapiens, UniProt P01112); test: Binding to HRAS by surface plasmon resonance (SPR), Single Cycle Kinetics; settings: SPR, GDP-bound HRAS wild-type protein vs GDP-bound KRAS wild-type protein
# [2] = system: human lung cancer strain NCI-H441;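 further: cell proliferation inhibition after four days measured by CellTiter-Glo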
# [3] = molecular target: GDP-bound NRAS wild-type protein (Homo sapiens, UniProt P01111); test: Binding to NRAS by surface plasmon resonance (SPR), Single Cycle Kinetics; settings: SPR, GDP-bound NRAS wild-type protein vs GDP-bound KRAS wild-type protein
# [4] = molecular target: GDP-bound KRAS wild-type protein (Homo sapiens, UniProt P01116); test: Binding to KRAS by surface plasmon resonance (SPR), Single Cycle Kinetics; settings: SPR, Single Cycle Kinetics, GDP-bound KRAS wild-type protein; read-out: KRAS KD
# Chain of GDP-bound KRAS wild-type protein (P01116 whole entry): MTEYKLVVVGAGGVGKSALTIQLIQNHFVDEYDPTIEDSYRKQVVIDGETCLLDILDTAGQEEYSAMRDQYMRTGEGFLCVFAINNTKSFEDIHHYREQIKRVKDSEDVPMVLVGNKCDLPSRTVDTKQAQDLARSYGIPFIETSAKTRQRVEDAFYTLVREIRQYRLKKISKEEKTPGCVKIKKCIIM
# Chain of GDP-bound NRAS wild-type protein (P01111 whole entry): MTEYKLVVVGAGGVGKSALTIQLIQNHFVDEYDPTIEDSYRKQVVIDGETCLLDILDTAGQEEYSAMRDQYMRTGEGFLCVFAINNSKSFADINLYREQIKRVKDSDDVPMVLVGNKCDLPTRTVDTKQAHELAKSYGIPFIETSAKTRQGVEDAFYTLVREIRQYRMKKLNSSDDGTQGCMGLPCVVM
# Chain of GDP-bound HRAS wild-type protein (P01112 whole entry): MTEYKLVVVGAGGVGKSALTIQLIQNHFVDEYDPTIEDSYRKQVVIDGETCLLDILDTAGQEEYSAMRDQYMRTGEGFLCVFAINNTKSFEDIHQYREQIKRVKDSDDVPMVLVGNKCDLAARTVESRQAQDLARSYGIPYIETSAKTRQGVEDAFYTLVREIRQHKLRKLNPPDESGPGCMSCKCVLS
SMILES,HRAS/KRAS (ratio of KD value for HRAS to KD value for KRAS) [1],IC50 [2] [nM],NRAS/KRAS (ratio of KD value for NRAS to KD value for KRAS) [3],Kd [4] [nM]
CCO[C@@H]1C[C@H]2C(=O)NC3(CCC3)C(=O)N(C)[C@@H](C3CCCC3)C(=O)N(C)[C@H](C(=O)N(C)C)CC(=O)N(C)[C@@H](Cc3ccccc3F)C(=O)N[C@@H]([C@@H](C)CC)C(=O)N(C)CC(=O)N(C)[C@H]3CCCCCN(C3=O)[C@@H](Cc3ccc(C(F)(F)F)cc3)C(=O)N(C)CC(=O)N[C@@H](CCc3cc(F)c(C(F)(F)F)c(F)c3)C(=O)N2C1 [PP0934],B (a compound having 3 or more and less than 10 is denoted as B),51.8,B (a compound having 3 or more and less than 10 is denoted as B),0.72
CCO[C@@H]1C[C@H]2C(=O)NC3(CCC3)C(=O)N(C)[C@@H](C3CCCC3)C(=O)N(C)[C@H](C(=O)N(C)C)CC(=O)N(C)[C@@H](Cc3ccc(F)c(F)c3)C(=O)N[C@@H]([C@@H](C)CC)C(=O)N(C)CC(=O)N(C)[C@H]3CCCCCN(C3=O)[C@@H](Cc3ccc(C(F)(F)F)cc3)C(=O)N(C)CC(=O)N[C@@H](CCc3cc(F)c(C(F)(F)F)c(F)c3)C(=O)N2C1 [PP0937],B (a compound having 3 or more and less than 10 is denoted as B),39,B (a compound having 3 or more and less than 10 is denoted as B),1
CCO[C@@H]1C[C@H]2C(=O)NC3(CCC3)C(=O)N(C)[C@@H](C3CCCC3)C(=O)N(CC)[C@H](C(=O)N3CCOCC3)CC(=O)N(C)[C@@H](CCC(F)F)C(=O)N[C@@H]([C@@H](C)CC)C(=O)N(C)CC(=O)N(C)[C@H]3CCCCCN(C3=O)[C@@H](Cc3ccc(C(F)(F)F)cc3)C(=O)N(C)CC(=O)N[C@@H](CCc3cc(F)c(C(F)(F)F)c(F)c3)C(=O)N2C1 [PP0948],A (a compound having 10 or more and less than 20 is denoted as A),234,A (a compound having 10 or more and less than 20 is denoted as A),3.2
CCO[C@@H]1C[C@H]2C(=O)NC3(CCC3)C(=O)N(C)[C@@H](C3CCCC3)C(=O)N(CC)[C@H](C(=O)N3CCOCC3)CC(=O)N(C)[C@@H](CC)C(=O)N[C@@H]([C@@H](C)CC)C(=O)N(C)CC(=O)N(C)[C@H]3C/C=C\CCN(C3=O)[C@@H](Cc3ccc(C(F)(F)F)cc3)C(=O)N(C)CC(=O)N[C@@H](CCc3cc(F)c(C(F)(F)F)c(F)c3)C(=O)N2C1 [PP0979],A (a compound having 10 or more and less than 20 is denoted as A),281,AA (a compound having 20 or more is denoted as AA),1.7
CC[C@H](C)[C@@H]1NC(=O)[C@H](CC(C)C)N(C)C(=O)C[C@@H](C(=O)N2CCOCC2)N(C)C(=O)[C@H](C2CCCC2)N(C)C(=O)C2(CCC2)NC(=O)[C@@H]2[C@@H](OCC(F)F)CCN2C(=O)[C@H](CCc2cc(F)c(C(F)(F)F)c(F)c2)NC(=O)CN(C)C(=O)[C@H](Cc2ccc(C(F)(F)F)cc2)N2CCCCC[C@@H](C2=O)N(C)C(=O)CN(C)C1=O [PP1012],B (a compound having 3 or more and less than 10 is denoted as B),41.6,A (a compound having 10 or more and less than 20 is denoted as A),0.9
"CCO[C@@H]1C[C@H]2C(=O)NC3(CCC3)C(=O)N(C)[C@@H](C3CCCC3)C(=O)N(C)[C@H](C(=O)N(C)C)CC(=O)N(C)[C@@H](CC3CCCC3)C(=O)N[C@@H]([C@@H](C)CC)C(=O)N(C)CC(=O)N(C)[C@H]3C/C=C\CCN(C3=O)[C@@H](Cc3ccc(C(F)(F)F)cc3)C(=O)N(C)CC(=O)N[C@@H](CCc3cc(F)c(C(F)(F)F)c(F)c3)C(=O)N2C1 [PP1112, (2S,8S,12R,14S,20S,23S,27S,30S,36S,38Z)-20-cyclopentyl-27-(cyclopentylmethyl)-8-[2-[3,5-difluoro-4-(trifluoromethyl)phenyl]ethyl]-12-ethoxy-N,N,4,19,22,26,32,35-octamethyl-30-[(1S)-1-methylpropyl]-3,6,9,15,18,21,25,28,31,34,42-undecaoxo-2-[[4-(trifluoromethyl)phenyl]methyl]spiro[1,4,7,10,16,19,22,26,29,32,35-undecazatricyclo[34.5.1.0^10,14]dotetracont-38-ene-17,1′-cyclobutane]-23-carboxamide]",B (a compound having 3 or more and less than 10 is denoted as B),10.4,A (a compound having 10 or more and less than 20 is denoted as A),0.06
"CCO[C@@H]1C[C@H]2C(=O)NC3(CCC3)C(=O)N(C)[C@@H](C3CCCC3)C(=O)N(C)[C@H](C(=O)N(C)C)CC(=O)N(C)[C@@H](CC3CCC3)C(=O)N[C@@H]([C@@H](C)CC)C(=O)N(C)CC(=O)N(C)[C@H]3C/C=C\CCN(C3=O)[C@@H](Cc3ccc(C(F)(F)F)cc3)C(=O)N(C)CC(=O)N[C@@H](CCc3cc(F)c(C(F)(F)F)c(F)c3)C(=O)N2C1 [PP1118, (2S,8S,12R,14S,20S,23S,27S,30S,36S,38Z)-27-(cyclobutylmethyl)-20-cyclopentyl-8-[2-[3,5-difluoro-4-(trifluoromethyl)phenyl]ethyl]-12-ethoxy-N,N,4,19,22,26,32,35-octamethyl-30-[(1S)-1-methylpropyl]-3,6,9,15,18,21,25,28,31,34,42-undecaoxo-2-[[4-(trifluoromethyl)phenyl]methyl]spiro[1,4,7,10,16,19,22,26,29,32,35-undecazatricyclo[34.5.1.0^10,14]dotetracont-38-ene-17,1′-cyclobutane]-23-carboxamide]",B (a compound having 3 or more and less than 10 is denoted as B),6.5,A (a compound having 10 or more and less than 20 is denoted as A),0.056
"CC[C@H](C)[C@@H]1NC(=O)[C@H](CC)N(C)C(=O)C[C@@H](C(=O)N(C)C)N(C)C(=O)[C@H](C2CCCC2)N(C)C(=O)C2(CCC2)NC(=O)[C@@H]2CC(F)(F)CN2C(=O)[C@H](CCc2cc(F)c(C(F)(F)F)c(F)c2)NC(=O)CN(C)C(=O)[C@H](Cc2ccc(C(F)(F)F)cc2)N2CC/C=C\C[C@@H](C2=O)N(C)C(=O)CN(C)C1=O [PP1129, (2S,8S,14S,20S,23S,27S,30S,36S,38Z)-20-cyclopentyl-8-[2-[3,5-difluoro-4-(trifluoromethyl)phenyl]ethyl]-27-ethyl-12,12-difluoro-N,N,4,19,22,26,32,35-octamethyl-30-[(1S)-1-methylpropyl]-3,6,9,15,18,21,25,28,31,34,42-undecaoxo-2-[[4-(trifluoromethyl)phenyl]methyl]spiro[1,4,7,10,16,19,22,26,29,32,35-undecazatricyclo[34.5.1.0^10,14]dotetracont-38-ene-17,1′-cyclobutane]-23-carboxamide]",B (a compound having 3 or more and less than 10 is denoted as B),10.2,A (a compound having 10 or more and less than 20 is denoted as A),0.056
"CC[C@H](C)[C@@H]1NC(=O)[C@H](CC)N(C)C(=O)C[C@@H](C(=O)N(C)C)N(C)C(=O)[C@H](C2CCCC2)N(C)C(=O)C2(CCC2)NC(=O)[C@@H]2C[C@@H](OC)CN2C(=O)[C@H](CCc2cc(F)c(C(F)(F)F)c(F)c2)NC(=O)CN(C)C(=O)[C@H](Cc2ccc(C(F)(F)F)cc2)N2CC/C=C\C[C@@H](C2=O)N(C)C(=O)CN(C)C1=O [PP1130, (2S,8S,12R,14S,20S,23S,27S,30S,36S,38Z)-20-cyclopentyl-8-[2-[3,5-difluoro-4-(trifluoromethyl)phenyl]ethyl]-27-ethyl-12-methoxy-N,N,4,19,22,26,32,35-octamethyl-30-[(1S)-1-methylpropyl]-3,6,9,15,18,21,25,28,31,34,42-undecaoxo-2-[[4-(trifluoromethyl)phenyl]methyl]spiro[1,4,7,10,16,19,22,26,29,32,35-undecazatricyclo[34.5.1.0^10,14]dotetracont-38-ene-17,1′-cyclobutane]-23-carboxamide]",B (a compound having 3 or more and less than 10 is denoted as B),19.6,A (a compound having 10 or more and less than 20 is denoted as A),0.035
"CC[C@H](C)[C@@H]1NC(=O)[C@H](CC)N(C)C(=O)C[C@@H](C(=O)N(C)C)N(C)C(=O)[C@H](C2CCCC2)N(C)C(=O)C2(CCC2)NC(=O)[C@@H]2C[C@@H](F)CN2C(=O)[C@H](CCc2cc(F)c(C(F)(F)F)c(F)c2)NC(=O)CN(C)C(=O)[C@H](Cc2ccc(C(F)(F)F)cc2)N2CC/C=C\C[C@@H](C2=O)N(C)C(=O)CN(C)C1=O [PP1131, (2S,8S,12R,14S,20S,23S,27S,30S,36S,38Z)-20-cyclopentyl-8-[2-[3,5-difluoro-4-(trifluoromethyl)phenyl]ethyl]-27-ethyl-12-fluoro-N,N,4,19,22,26,32,35-octamethyl-30-[(1S)-1-methylpropyl]-3,6,9,15,18,21,25,28,31,34,42-undecaoxo-2-[[4-(trifluoromethyl)phenyl]methyl]spiro[1,4,7,10,16,19,22,26,29,32,35-undecazatricyclo[34.5.1.0^10,14]dotetracont-38-ene-17,1′-cyclobutane]-23-carboxamide]",B (a compound having 3 or more and less than 10 is denoted as B),32,A (a compound having 10 or more and less than 20 is denoted as A),0.025
